Measured values: US20130065227A1, “METHODS OF INCREASING MACROPINOCYTOSIS IN CANCER CELLS” (priority 2010, published 2013)

How the values were obtained:
DU145 [1] = test: Cell response to AS1411; format: cell-based
Description: (§1) It has recently been discovered that AS1411 can stimulate macropinocytosis (MP) in cancer cells and this finding was verified by several different methods and in multiple cancer cell lines (Table 1).

MCF7 = test: Cell response to AS1411; format: cell-based; conditions: Cancer, breast
Description: as §1

A549 [2] = test: Cell response to AS1411; format: cell-based; conditions: Cancer, non-small cell lung
Description: as §1

RWPE1 [3] = test: Cell response to AS1411; format: cell-based; conditions: Non-cancer, prostate epithelial
Description: as §1

BEAS2B [4] = test: Cell response to AS1411; format: cell-based; conditions: Non-cancer, lung epithelial
Description: as §1

SK-N-DZ = test: Cell response to AS1411; format: cell-based; conditions: Cancer, neuroblastoma
Description: as §1

RCC4 [5] = test: Cell response to AS1411; format: cell-based; conditions: Cancer, renal cell
Description: as §1

MDA-MB-231 = test: Cell response to AS1411; format: cell-based; conditions: Cancer, breast
Description: as §1

CHO [6] = test: Cell response to AS1411; format: cell-based; conditions: Non-cancer, hamster ovary
Description: as §1

DU145 [7] = test: Uptake of AS1411 by macropinocytosis (MP); format: cell-based; conditions: DU145; Cancer, prostate
Protocol: (§2) FIG. 2 are graphs showing that AS1411 is internalized by different endocytic mechanisms in DU145 cancer cells and in non-malignant Hs27 cells. DU145 or Hs27 cells were plated 18 h before uptake analysis. Cells were pre-treated as described with inhibitor (gray histogram) or the corresponding vehicle control (black histogram) before addition of 10 μM FL-AS1411 and incubation at 37° C. for 2 h. After incubation, cells were harvested and analyzed by flow cytometry. Pre-treatment conditions were at 37° C. with: (Panel A) 5 μM Cytochalasin D for 30 min; (Panel B) 80 μM Dynasore for 30 min; or (Panel C) 3 mM amiloride for 1 h. All experiments were repeated at least three times and representative data are shown. Solid gray histograms represent background autofluorescence of unstained cells.
To analyze uptake of the oligodeoxynucleotides or dextran-10K (macropinocytic marker) by flow cytometry, 2×10^5 cells in fresh supplemented culture medium (2.5 ml) were plated into 6-well plates for 18 h. After complete adhesion, the cells were incubated with 5′-FAM tagged oligodeoxynucleotides or Alexa Fluor 488 tagged dextran-10K and incubated as indicated in the Description of the Drawings. Cells were washed once with ice-cold PBS, incubated with 1 μg/ml 7-amino-actinomycin D (7-AAD) for 5 min on ice or 1 μg/ml propidium iodide (PI), and washed twice with ice-cold PBS. […]

DU145 cells = format: cell-based; conditions: 4 days, 10 μM AS1411
Protocol: DU145 cells were incubated for 4 days in the presence of 10 μM AS1411 with 3-MA at the concentration indicated, and cell number was assessed by MTT assay.
It also appears unlikely that AS1411-induced cell death is due to autophagy. […] Further evidence that supports the idea that AS1411 can induce methuosis comes from the similarity between the appearance of cells treated with AS1411 and published images of glioblastoma cells undergoing Ras-induced methuosis.

MCF10A = test: Cell response to AS1411; format: cell-based, human; conditions: Non-cancer, breast epithelial
Description: as §1

Hs27 = test: Cell response to AS1411; format: cell-based, human; conditions: Non-cancer, skin fibroblasts
Description: as §1

A549 [8] = test: Uptake of AS1411 by macropinocytosis (MP); format: cell-based; conditions: Cancer, non-small cell lung
Description: as §1

RWPE1 [9] = test: Uptake of AS1411 by macropinocytosis (MP); format: cell-based; conditions: Non-cancer, prostate epithelial
Description: as §1

BEAS2B [10] = test: Uptake of AS1411 by macropinocytosis (MP); format: cell-based; conditions: Non-cancer, lung epithelial
Description: as §1

RCC4 [11] = test: Uptake of AS1411 by macropinocytosis (MP); format: cell-based; conditions: Cancer, renal cell
Description: as §1

CHO [12] = test: Uptake of AS1411 by macropinocytosis (MP); format: cell-based; conditions: Non-cancer, hamster ovary
Description: as §1

Hs27 cells = test: Uptake of fluorophore-labeled oligonucleotides by flow cytometry; format: cell-based, human; conditions: 10 μM, 2 h
Protocol: FIG. 1 are graphs showing that AS1411 cell internalization is an active process. Cells were plated 18 h before uptake analysis. After incubation as described, cells were washed with ice-cold PBS, incubated with 1 μg/ml 7-AAD, harvested and resuspended in 1% paraformaldehyde containing 2 μg/ml actinomycin D, then analyzed by flow cytometry. (Panel A) DU145 cells were incubated at 37° C. with fresh complete DMEM medium containing 10 μM FL-AS1411 (black line) or 10 μM FL-CRO (gray line) for the time indicated. (Panel B) DU145 cells were incubated for 2 h at 37° C. in complete or serum-free DMEM medium containing 10 μM FL-AS1411, or 10 μM FL-CRO, or no oligonucleotide. (Panel C) Various cell lines were incubated with 10 μM FL-AS1411 (black outline histogram), 10 μM FL-CRO (gray outline histogram) or without DNA (solid gray histogram) at 37° C. or 4° C. for 2 h. All experiments were repeated at least three times. Data are mean of three independent samples; bars, SE; *(p<0.05).
as §2
FIG. 9 are graphs showing the effects of inhibitors on various endocytic pathways. DU145 or Hs27 cells were plated 18 hr before uptake analysis. (Panel A) DU145 cells were pre-treated with dynamin inhibitor, […] Dynasore (black histogram) or DMSO (gray histogram) for 30 min at 37° C. After pre-treatment, cells were treated with […] transferrin conjugated with Alexa Fluor 488 for 30 min at 37° C. (Panel B) DU145 and Hs27 cells were pre-treated with 3 mM amiloride (black histogram) or vehicle (serum-free medium, gray histogram) for 1 h at 37° C. After pre-treatment, FL-CRO was added at a concentration of 10 μM and incubated at 37° C. for 2 h. After incubation, cells were harvested and analyzed by FACS. Gray solid histogram represents unstained cells.
To analyze uptake of the oligodeoxynucleotides or dextran-10K (macropinocytic marker) by flow cytometry, 2×10^5 cells in fresh supplemented culture medium (2.5 ml) were plated into 6-well plates for 18 h. […]

5′-d(GGTGGTGGTGGTTGTGGTGGTGGTGG) [AS1411]
sensitivity of cells to AS1411 (DU145 [1]): sensitive
Cells respond? (DU145 [1]; DU145, Cancer, prostate): Yes
Cells respond? (MCF7): Yes
Cells respond? (A549 [2]): Yes
Cells respond? (RWPE1 [3]): No
Cells respond? (BEAS2B [4]): No
Cells respond? (SK-N-DZ): Yes
Cells respond? (RCC4 [5]): Yes
Cells respond? (MDA-MB-231): Yes
Cells respond? (CHO [6]): No
Update by MP? (DU145 [7]): Yes
effect in combination with 3-MA (DU145 cells): additive
Cells respond? (MCF10A): No
Cells respond? (Hs27): No
Update by MP? (A549 [8]): Yes
Update by MP? (RWPE1 [9]): No
Update by MP? (BEAS2B [10]): Low
Update by MP? (RCC4 [11]): Yes
Update by MP? (CHO [12]): No
uptake in Hs27 cells compared with cancer cells (Hs27 cells): higher uptake of AS1411 than any of the cancer cells analyzed
